system: m-IMCD3 cells; experiment: Inhibition of PGE2-stimulated in vitro cyst formation in m-IMCD3 cells; type: cell-based, mouse; settings: Mus musculus, mIMCD3, 144 h, 3 μM; mean cyst area, 100% for (DMSO + PGE2) and 0% for DMSO control; 6 days of culture; read-out: % Cyst area after incubation with 3 μM test compound
How it was run: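 m-IMCD3 cells embedded in collagen I/Matrigel 3D culture; 18–24 h after plating, compound (0.1% DMSO final) plus PGE2 (100 nM final) added, replenished after 2 or 3 days. After 6 days, z-stack imaging gave mean cyst area, normalized to DMSO+PGE2 (100%) and DMSO (0%).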

| Compound | activity at 3 µM |
| --- | --- |
| O=C(c1ccc(F)cn1)N1CCc2nc(N3C4CCC3CNC4)sc2C1 [Example 202, (2-(3,8-diazabicyclo[3.2.1]octan-8-yl)-6,7-dihydrothiazolo[5,4-c]pyridin-5(4H)-yl)(5-fluoropyridin-2-yl)methanone] | -4% |
| O=C(c1ccccc1OC(F)F)N1CCc2nc(N3C4CCC3CNC4)sc2C1 [Example 203, (2-(3,8-diazabicyclo[3.2.1]octan-8-yl)-6,7-dihydrothiazolo[5,4-c]pyridin-5(4H)-yl)(2-(difluoromethoxy)phenyl)methanone] | -1% |
| O=C(c1ccc(OC(F)F)cc1)N1CCc2nc(N3C4CCC3CNC4)sc2C1 [Example 204, (2-(3,8-diazabicyclo[3.2.1]octan-8-yl)-6,7-dihydrothiazolo[5,4-c]pyridin-5(4H)-yl)(4-(difluoromethoxy)phenyl)methanone] | 4% |
| O=C(c1cccc(OC(F)(F)F)c1)N1CCc2nc(N3C4CCC3CNC4)sc2C1 [Example 205, (2-(3,8-diazabicyclo[3.2.1]octan-8-yl)-6,7-dihydrothiazolo[5,4-c]pyridin-5(4H)-yl)(3-(trifluoromethoxy)phenyl)methanone] | 0% |
| O=C(c1cccc(OC(F)F)c1)N1CCc2nc(N3C4CCC3CNC4)sc2C1 [Example 206, (2-(3,8-diazabicyclo[3.2.1]octan-8-yl)-6,7-dihydrothiazolo[5,4-c]pyridin-5(4H)-yl)(3-(difluoromethoxy)phenyl)methanone] | 6% |
| O=C(c1ccccc1OC(F)(F)F)N1CCc2nc(N3C4CCC3CNC4)sc2C1 [Example 207, (2-(3,8-diazabicyclo[3.2.1]octan-8-yl)-6,7-dihydrothiazolo[5,4-c]pyridin-5(4H)-yl)(2-(trifluoromethoxy)phenyl)methanone] | 0% |
| O=C(c1ccc(OC(F)(F)F)cc1)N1CCc2nc(N3C4CCC3CNC4)sc2C1 [Example 208, (2-(3,8-diazabicyclo[3.2.1]octan-8-yl)-6,7-dihydrothiazolo[5,4-c]pyridin-5(4H)-yl)(4-(trifluoromethoxy)phenyl)methanone] | 8% |
| O=C(c1ccccc1F)N1CCc2nc(N3C4CCC3CNC4)sc2C1 [Example 209, (2-(3,8-diazabicyclo[3.2.1]octan-8-yl)-6,7-dihydrothiazolo[5,4-c]pyridin-5(4H)-yl)(2-fluorophenyl)methanone] | -5% |
| O=C(c1ccccc1Cl)N1CCc2nc(N3C4CCC3CNC4)sc2C1 [Example 210, (2-(3,8-diazabicyclo[3.2.1]octan-8-yl)-6,7-dihydrothiazolo[5,4-c]pyridin-5(4H)-yl)(2-chlorophenyl)methanone] | 11% |
| CC(C)Oc1ccccc1C(=O)N1CCc2nc(N3C4CCC3CNC4)sc2C1 [Example 211, (2-(3,8-diazabicyclo[3.2.1]octan-8-yl)-6,7-dihydrothiazolo[5,4-c]pyridin-5(4H)-yl)(2-isopropoxyphenyl)methanone] | 40% |
| O=C(c1ccc(F)cc1F)N1CCc2nc(N3C4CCC3CNC4)sc2C1 [Example 212, (2-(3,8-diazabicyclo[3.2.1]octan-8-yl)-6,7-dihydrothiazolo[5,4-c]pyridin-5(4H)-yl)(2,4-difluorophenyl)methanone] | 0% |
| N#Cc1ccccc1C(=O)N1CCc2nc(N3C4CCC3CNC4)sc2C1 [Example 213, 2-(2-(3,8-diazabicyclo[3.2.1]octan-8-yl)-4,5,6,7-tetrahydrothiazolo[5,4-c]pyridine-5-carbonyl)benzonitrile] | 17% |
| COCc1ccccc1C(=O)N1CCc2nc(N3C4CCC3CNC4)sc2C1 [Example 214, (2-(3,8-diazabicyclo[3.2.1]octan-8-yl)-6,7-dihydrothiazolo[5,4-c]pyridin-5(4H)-yl)(2-(methoxymethyl)phenyl)methanone] | 54% |
| CC(C)c1ccccc1C(=O)N1CCc2nc(N3C4CCC3CNC4)sc2C1 [Example 215, (2-(3,8-diazabicyclo[3.2.1]octan-8-yl)-6,7-dihydrothiazolo[5,4-c]pyridin-5(4H)-yl)(2-isopropylphenyl)methanone] | 7% |

Reference: US20250388604A1, “Compounds and Their Use as PDE4 Activators” (Mironid Limited, priority 2022, published 2025)
